Assay results: PubChem BioAssay (NCI)
Values joined by “and” are separate entries in the source; they are usually repeats but may differ in a detail not shown here. Equal entries are not always repeated.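 Compound exposure: 48 hours, 5 concentrations, 96-well plates. GI50 is the concentration that inhibits growth by half. TGI: total growth inhibition.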

Key:
Assay in all cases: NCI tumour cell line growth inhibition, 48 h
[1] = system: 786-0 renal
[2] = system: COLO 205 colon
[3] = system: MCF7 breast
[4] = system: MDA-MB-435
[5] = system: NCI-H522 lung
[6] = system: OVCAR-5 ovarian
[7] = system: RXF 393 renal
[8] = system: SK-MEL-28 melanoma
[9] = system: SK-OV-3 ovarian
[10] = system: MDA-MB-231 breast

| Structure (SMILES) | TGI [1] | TGI [2] | TGI [3] [µM] | TGI [4] [µM] | TGI [5] | TGI [6] | TGI [7] [µM] | TGI [8] | TGI [9] | TGI [10] [µM] | GI50 [2] [µM] | GI50 [3] [µM] | GI50 [10] [µM] | GI50 [4] [µM] | GI50 [5] [µM] | GI50 [7] [µM] | GI50 [9] [µM] |
| --- | --- | --- | --- | --- | --- | --- | --- | --- | --- | --- | --- | --- | --- | --- | --- | --- | --- |
| c1ccc2c(c1)NC(C1OC3CCCN3C1C1Nc3ccccc3S1)S2 (stereo not given) | > 100 µM | > 100 µM | > 100 | > 100 | > 100 µM | > 100 µM | 97 | > 100 µM | > 100 µM | – | – | – | – | – | – | – | – |
| COc1nc(C#CCC(C)O)nc(OC)n1 (stereo not given) | – | 56.8 µM | 33.5 | 54.6 | 34 µM | 33.3 µM | 24.2 | > 100 µM | > 100 µM | 52 | – | – | – | – | – | – | – |
| O=C1C=CC(=O)N1Nc1ccc([N+](=O)[O-])cc1[N+](=O)[O-] | > 100 µM | > 60.7 µM | – | – | > 58.9 µM | > 100 µM | – | > 59.2 µM | > 100 µM | – | – | – | – | – | – | – | – |
| COc1cc([N+](=O)[O-])c(OC)cc1-c1nc2sc(Cl)cn2c1/C=N/Nc1ccccn1 | – | > 50 µM | 32 | > 50 | > 50 µM | – | 26.2 | – | 16.5 µM | 30.7 | > 50 | 11.1 | 8.61 | > 50 | > 50 | 12.6 | 9.11 |
| COc1ccc(CC(O)CN2CCOCC2)cc1 (stereo not given) | > 100 µM | – | – | > 100 | > 100 µM | > 100 µM | > 100 | > 100 µM | – | > 100 | – | – | – | – | – | – | – |
| Cc1cn(C2OC(C)(CO)C(O)C2O)c(=O)[nH]c1=O (stereo not given) | > 100 µM | > 100 µM | – | – | > 100 µM | > 100 µM | > 100 | > 100 µM | > 100 µM | – | – | – | – | – | – | – | – |
| N#C/C(=C\c1cc(Br)c(O)c(Br)c1)c1cccnc1 | 70.5 µM | > 100 µM | > 100 | – | > 100 µM | > 100 µM | > 100 | > 100 µM | > 100 µM | – | – | – | – | – | – | – | – |
| c1ccc2sc(SCSc3nc4ccccc4s3)nc2c1 | > 100 µM | – | – | > 100 | > 100 µM | > 100 µM | > 100 | > 100 µM | – | > 100 | – | – | – | – | – | – | – |
| Cc1c(C(=O)CSc2nc3ccccc3c(=O)n2-c2ccccc2)c(=O)n(-c2ccccc2)n1C | 38.9 µM | > 100 µM | – | – | 79.5 µM | > 100 µM | – | > 100 µM | 41.4 µM | – | – | – | – | – | – | – | – |
| Brc1cccc(Nc2nc(-c3cccs3)nc3ccc(Br)cc23)c1 | > 100 µM | > 100 µM | > 100 | 37.2 | 54.9 µM | 98.2 µM | – | > 100 µM | > 100 µM | 64.6 | – | – | – | – | – | – | – |
| CC(C(=O)n1nnc2ccccc21)N(c1ccccc1)c1ccccc1 (stereo not given) | > 100 µM | > 100 µM | – | – | > 100 µM | > 100 µM | > 100 | > 100 µM | > 100 µM | – | – | – | – | – | – | – | – |
| Cc1cc2[nH]c3[nH]c(=O)[nH]c(=O)c3c2cc1C | > 100 µM | > 100 µM | > 100 | > 100 | > 100 µM | > 100 µM | > 100 | – | > 100 µM | > 100 | – | – | – | – | – | – | – |
| CCOC(=O)/C=C(\C)c1ccc(C)cc1C | – | > 100 µM | – | – | – | > 100 µM | 27.7 | 51.8 µM | – | – | – | – | – | – | – | – | – |
| CC(C)(C)NC(=O)/C(=C\Sc1ccccc1)c1ccc2c(c1)OCO2 | > 100 µM | 53.4 µM | 60.6 | 47.7 | 43.3 µM | > 100 µM | – | > 100 µM | > 100 µM | 52.8 | – | – | – | – | – | – | – |
| CCCCC1c2c([nH]c3ccccc23)C2C(=O)N(c3ccc(OC)cc3)C(=O)C2C1CCC (stereo not given) | > 10 µM | 6.34 µM | – | 4.29 | > 10 µM | > 10 µM | > 10 | > 10 µM | > 10 µM | > 10 | – | – | – | – | – | – | – |
| CO[C@]12CC(=O)C3(C(C[C@H]4CC5CC=C6C[C@@H](OC(C)=O)CC[C@]6(OC(C)=O)C5C[C@@]43C)C1)C1C[C@H]3[C@@H]4CC=C5C[C@@H](OC(C)=O)CC[C@]5(OC(C)=O)[C@H]4CC[C@]3(C)C12 (stereo not given in full) | > 100 µM | 12.7 µM | > 100 | > 100 | 31.7 µM | 43.5 µM | – | > 100 µM | > 100 µM | 30.2 | – | – | – | – | – | – | – |
| Cc1c2c(n(CCc3ccc(Cl)cc3)c1C)NN=C(C#N)S2(=O)=O | > 100 µM | > 100 µM | > 100 | > 100 | – | > 100 µM | – | > 100 µM | > 100 µM | > 100 | – | – | – | – | – | – | – |
| C=CCn1c(=O)ccn(COCCO)c1=O | – | > 100 µM | > 100 | > 100 | > 100 µM | > 100 µM | > 100 | > 100 µM | – | > 100 | – | – | – | – | – | – | – |
| C=CCNC(=S)/N=C/c1c(O)c2ccccc2oc1=O | > 100 µM | > 100 µM | – | – | > 100 µM | > 100 µM | 85.8 | > 100 µM | > 100 µM | – | – | – | – | – | – | – | – |
| C1=CC2=CC=CC3c4nc5ccc6ccccc6c5nc4C(=C1)C23 (stereo not given) | > 100 µM | > 100 µM | > 100 | > 100 | – | > 100 µM | > 100 | > 100 µM | > 100 µM | > 100 | – | – | – | – | – | – | – |
| O=[N+]([O-])/C(C(Cl)=C(Cl)Cl)=C(\Nc1cccc2cccnc12)SCc1ccccc1 | 47.3 µM | 33.5 µM | 36.5 | 37.7 | – | 78.9 µM | – | 33.9 µM | 43.4 µM | > 100 | – | – | – | – | – | – | – |
| CC(=O)N/N=C1\NC(=O)C[C@H]2[C@@H]3CC=C4C[C@@H](OC(C)=O)CC[C@]4(C)[C@H]3CC[C@]12C | 43.1 µM | > 100 µM | > 100 | > 100 | > 100 µM | > 100 µM | – | 33 µM | 53.7 µM | 39.3 | – | – | – | – | – | – | – |
| O=c1ccc2cc3ccc4cccc5ccc(c2o1)c3c45 | – | > 100 µM | – | – | > 100 µM | – | – | > 100 µM | 32.6 µM | – | – | – | – | – | – | – | – |
| CC[C@H]1CN2CCc3cc(OC)c(OC)cc3[C@@H]2C[C@@H]1C[C@H]1NCCc2cc(OC)c(OC)cc21 | 0.0621 µM and 0.248 µM | 0.0283 µM and 0.0201 µM | – | 0.0442 | 0.0392 µM and 0.0356 µM | 0.2 µM and 0.551 µM | 0.0593 | 0.176 µM and 0.109 µM | 0.223 µM and 0.991 µM | 0.0458 | – | – | – | – | – | – | – |
| O=c1cc(N=P(c2ccccc2)(c2ccccc2)c2ccccc2)n(-c2ccccc2)c(=O)n1-c1ccccc1 | 25.2 µM | – | 34.3 | 57.2 | 37.3 µM | > 100 µM | 15.1 | > 100 µM | 76.1 µM | 78.9 | – | – | – | – | – | – | – |
